The source of these data is patent publication US20250066423A1, “SESTRIN-MAPK COMPLEX INHIBITORS” (Sentcell Ltd, priority 2021, published 2025).

For assay [1], the system named is CD95+ CD62L+ CD44− CD4+ memory T cells. It is filed as in vivo, mice. Conditions: examined up to 8 weeks.
Assay [2] has as its system telomere extension in T cells exposed to APCs. The assay can be described thus: Telomere length quantification assay (qPCR). Particulars: 5 donors. It is filed as cell-based, human. The text has this: FIG. 23 illustrates live transfer of telomeres from APC to T cells in the presence of DOS. (A, left): T cells showing baseline fluorescence in the channel of Tel C; (A, middle): T cells treated with DOS cultured with APC; (A, right): T cells co-cultured with APC, in the absence of DOS. DOS enhances telomere transfer by ˜2 fold. Representative of 3 experiments. (B): Telomere extension was quantified by qPCR. Synapse-driven telomere extension (Akb) in T cells exposed to APCs and treated with or without DOS46L. Results from 5 donors are shown. […] Mann-Whitney was used. *p<0.05.
• 1. CD4− and CD4+ cells were purified from PBMC using appropriate microbead kit (Miltenyi) • 2. CD4+ cells were then used to purify CD27− and CD28− cells by using Miltenyi purification kits. • 3. A pellet of CD4− and CD4+/CD27−/CD28− cells were frozen. • 4. 4*10^6 CD4− were mixed with 1*10^6 CD4+/CD27−/CD28− cells in presence or not of DOS 46L 10 μM. • 14. The mixed cells were stimulated o.n. with a mix 1:1 of CMV and EBV • 15. The day after, CD4− cells were detached from conjugates with CD4+/CD27−/CD28− cells with a syringe by using cold PBS • 5. CD4− were then purified from CD4+ cells by using Miltenyi purification kits. • 16. CD4− and CD4+ cell pellets post conjugate were then frozen. • 17.
On the technique in general: Quantitative PCR measures a nucleic acid by following its amplification.

A further assay addresses T1, Sestrin 2 (Homo sapiens, UniProt P58004).
T1 sequence (P58004 1-480): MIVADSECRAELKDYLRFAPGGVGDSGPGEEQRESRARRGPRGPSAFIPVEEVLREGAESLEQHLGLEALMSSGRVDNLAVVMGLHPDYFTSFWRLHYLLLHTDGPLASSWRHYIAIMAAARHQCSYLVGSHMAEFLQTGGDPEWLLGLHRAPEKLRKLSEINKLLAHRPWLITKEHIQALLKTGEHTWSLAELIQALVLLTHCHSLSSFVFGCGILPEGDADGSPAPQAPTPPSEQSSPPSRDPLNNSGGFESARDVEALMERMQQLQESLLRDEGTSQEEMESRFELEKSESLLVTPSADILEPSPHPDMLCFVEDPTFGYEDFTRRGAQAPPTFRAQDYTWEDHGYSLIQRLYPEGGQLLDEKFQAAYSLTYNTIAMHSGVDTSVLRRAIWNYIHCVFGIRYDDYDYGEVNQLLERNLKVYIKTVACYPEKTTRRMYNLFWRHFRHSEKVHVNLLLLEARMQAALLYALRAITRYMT
Kind of assay: Proteasomal degradation and ubiquitination of sestrin 2 (MG-132 pre-treatment, immunoprecipitation, immunoblot). It is filed as cell-based. Further details: endogenous in cells; host or cells: primary CD4+ T cells from PBMCs of healthy donors. As for the experimental part: FIG. 6 illustrates sMAC disruption by DOS46L. (A) CD4+ T cells were purified from PBMCs from healthy donors and treated with DOS46L (10 uM) for the indicated time points. The binding of AMPK to Sestrin 2 was quantified against the total level of Sestrin 2 immunoprecipitated and detected by ELISA. IgG immunoprecipitates served as background control. (B) Cells were pre-treated with proteasome-inhibitor MG-132 (10 uM) for 30 min and subsequently treated with DOS46L (10 uM) for 4 hours. Cells were harvested for immunoblot analysis or proceeded to immunoprecipitation. Levels of Sestrin 2, p38, and AMPK were evaluated by immunoblotting. H3 was used as a loading control. Representative images of 3 experiments are shown. (C) Immunoblot levels of Ubiquitin, Sestrin 2 and Histone 3 in Sestrin 2 immunoprecipitates and their lysates were analysed. Representative images are shown (top). The mean values (bottom) of ubiquitinated proteins in Sestrin 2 immunoprecipitates are shown. Results are presented as a mean±SD of 4 repeated experiments. Student's T-test was used to analyse the data. **p<0.01
• 1. Cell pellet was lysed with 100 μL of denaturing lysis buffer • 2. Then mixed well by vortexing vigorously for 2-3 sec at maximum speed. • 3. Samples were then boiled at 95° C. for 5 min. • 4. Samples were then diluted 900 μl of non-denaturing lysis buffer and mixed gently. • 5. […]
On the technique in general: In western blotting, separated proteins are transferred to a membrane and probed.

Another assay has as its system H1N1. The assay can be described thus: Autoptic lung analysis and viral clearance (qPCR of viral protein PA) in lungs of old mice. Conditions: mouse, in vivo.
For assay [3], the system named is paediatric neuroblastoma cell line (sh-sy5y). Kind of assay: Cancer cell death by FACS live-dead staining. It is filed as cell-based. Conditions: 1 uM to 20 uM, 48 hours. How it is done:
(§1) (Left) Immortalized paediatric neuroblastoma cell line (sh-sy5y) was treated at different concentrations of DOS46L and DOS144D (from 1 uM to 20 uM) for 48 hours, then analysed by FACS with live-dead staining. (Right) Breast cancer cell line (MCF-7) was treated at the fixed concentration of DOS46L and DOS144D (20 uM) for 48 hours, then analysed by FACS with live-dead dye staining. UN depicts untreated controls. Results of triplicate cultures are shown.
(In general: Flow cytometry measures light scatter and fluorescence of single cells or particles in a stream.)

Assay [4] concerns Breast cancer cell line (MCF-7). Kind of assay: Cancer cell death by FACS live-dead staining. It is filed as cell-based. Particulars: 20 uM, 48 hours. As for the experimental part:
as §1

Peptide text beside a SMILES is read from it.

For `CC[C@H](C)[C@@H]1NC(=O)[C@H](Cc2ccccc2)NC(=O)[C@H](C)NC(=O)[C@H](C(C)C)NC(=O)[C@@H]2CCCN2C1=O` [DOS46L] (cyclo(AFIPV)), the “stem-like memory T cell generation” value in assay [1] is “permanent stem-like generation”. Further, the synapse-driven telomere extension result in assay [2] was “restoration in telomere length is similar to the extension observed in young T cells”. Besides, at Sestrin 2 (MG-132 10 uM 30 min, then DOS46L 10 uM 4 hours), the “inhibition of sestrin and AMPK after proteasome inhibitor pre-treatment” value is on record as “vanished”. Besides, at Sestrin 2 (T cells exposed to DOS46L 10 uM, 4 hours), the “ubiquitinated sestrin 2 immunoprecipitated” value is “increased amount”. Further, the lung necrosis result in the assay on H1N1 is reported as “protection from lung necrosis”. The cancer cell death result in assay [3] and in assay [4] was “induction of cancer cell death” throughout.
